According to patent US9687488B2, “Compositions and methods for increasing neurotrophic peptides” (Saint Louis College of Pharmacy, priority 2012, dated 2017):

Columns and labels:
primary cortical neurons = test: MTS cell viability assay; type: cell-based, murine; conditions: 24 hours
Experimental: (§1) Murein E14-E15 cortices were dissected and removed to Hanks Balanced Salt Solution (HBSS) The tissue was dissociated with 0.05% trypsin in HBSS for 10 min at 37° C., and then filtered through a 70 µm cell strainer. Cells were plated on poly-D-lysine (PDL)-coated plates at −3.2×10^5 cells/cm^2 in CEMEM (10% fetal bovine serum, 10% horse serum, 2 mM L-glutamine, and 1% penicillin/streptomycin) for 45 min in a 37° C. humidified tri-gas incubator (5% CO2 and 5% 02). The medium was changed to Neurobasal medium (Invitrogen, Carlsbad, Calif.) with a B27 supplement (Gibco) containing antioxidants (NB plus AO) to specifically enhance neuronal growth. After 3 days the media were half changed with NB plus AO. All treatments were done at day 5 with complete media change containing vehicle, SAHA (suberoyl anilide hydroxamic acid; Vorinostat), and test compounds at final concentrations ranging from 125 μM to 1 nM for 24 hours. The MTS non-radioactive cell viability assay employed [3-(4,5-dimethylthiazol-2-yl)-5-(3-carboxymethoxyphenyl)-2-(4-sulfophenyl)-2H-tetrazolium, inner salt with phenazine methosulfate added as an electron coupling reagent, MTS is bioreduced by cells into a formazan product that is soluble in tissue culture medium and can be measured at 490 nm. MTS was performed at 24 hours per manufacturer recommendations (Promega, G5421).

[1] = tested on: progranulin levels in cortical neuron cultures; test: Dot blot / immunoblotting of progranulin in primary cortical neuron cultures; type: cell-based, Murine; conditions: primary cortical neurons, 24 hours; for accumulation of progranulin: dot blot (FIG. 5), repeat triplicate experiments
Experimental: as §1, with “hours.” for “hours. The MTS non-radioactive cell viability assay employed [3-(4,5-dimethylthiazol-2-yl)-5-(3-carboxymethoxyphenyl)-2-(4-sulfophenyl)-2H-tetrazolium, inner salt with phenazine methosulfate added as an electron coupling reagent, MTS is bioreduced by cells into a formazan product that is soluble in tissue culture medium and can be measured at 490 nm. MTS was performed at 24 hours per manufacturer recommendations (Promega, G5421).”
Culture medium was collected and cells were lysed in lysis buffer containing 50 mM Tris-HCl, pH 7.5, 150 mM sodium chloride, 1% Nonidet P-40, 0.5% sodium deoxycholate, 1 mM sodium orthovanadate, 5 mM sodium fluoride, and a protease inhibitor cocktail. Sample concentrations were determined to ensure equal loading, placed in Laemmli sample buffer containing B-mercaptoethanol, and denatured at 100° C. for 5 min. Proteins were separated on a 4% stacking and 12% resolving SDS-PAGE Tris-glycine gel, transferred to polyvinylidene difluoride membrane (Millipore), and blocked in 5% instant milk or 5% bovine serum albumin in Tris-buffered saline with 0.1% Tween for 1 hour. For immunoblotting, primary antibodies were incubated overnight at 4° C. with 1/1000 tubulin (Developmental Studies Hybridoma), and 1/1000 Progranulin (ProteinTech Group). 15 μL of media was loaded from each sample. Ponceau red staining on the membrane before immunological probing was used to show equal loading to look for secreted progranulin and survival of motor neurons protein.

[2] = tested on: survival motor neuron (SMN) protein in cortical neurons; test: Immunoblotting of SMN protein in cortical neuron cultures; type: cell-based, murine; conditions: immunoblot against tubulin (FIG. 6)
Experimental: as §1, with “hours.” for “hours. The MTS non-radioactive cell viability assay employed [3-(4,5-dimethylthiazol-2-yl)-5-(3-carboxymethoxyphenyl)-2-(4-sulfophenyl)-2H-tetrazolium, inner salt with phenazine methosulfate added as an electron coupling reagent, MTS is bioreduced by cells into a formazan product that is soluble in tissue culture medium and can be measured at 490 nm. MTS was performed at 24 hours per manufacturer recommendations (Promega, G5421).”
Culture medium was collected and cells were lysed in lysis buffer containing 50 mM Tris-HCl, pH 7.5, 150 mM sodium chloride, 1% Nonidet P-40, 0.5% sodium deoxycholate, 1 mM sodium orthovanadate, 5 mM sodium fluoride, and a protease inhibitor cocktail. Sample concentrations were determined to ensure equal loading, placed in Laemmli sample buffer containing B-mercaptoethanol, and denatured at 100° C. for 5 min. […]

SMILES	toxicity to the neurons (primary cortical neurons)	effective dose for progranulin accumulation [1]	accumulation of progranulin [1]	cellular concentration of survival motor neuron (SMN) protein [2]
COc1ccc(Cl)cc1NC(=O)CS(=O)(=O)c1ccccc1 [Compound 3, 2-(benzenesulfonyl)-N-(5-chloro-2-methoxyphenyl)acetamide]	apparently nontoxic	effective in extremely low doses	elicited accumulation of progranulin	
CC(=O)N(c1ccc(Oc2ccccc2)cc1)C1C=CS(=O)(=O)C1 (centres unmarked) [Compound 2, N-(1,1-dioxo-2,3-dihydro-1-[…]^6-thiophene-3-yl)-N-(4-phenoxyphenyl)acetamide]				dramatically increase
COc1ccc(-c2c(C)nn3c(=O)cc(Cc4ccccc4)[nH]c23)cc1OC [Compound 1, 5-benzyl-3-(3,4-dimethoxyphenyl)-2-methyl-4H,7H-pyrazolo[1,5,a]pyrimidin-7-one]	apparently nontoxic	effective in extremely low doses	elicited accumulation of progranulin	
CCN(CC(=O)Nc1ccccc1C)S(=O)(=O)c1ccc(OC)cc1 [Compound 4, 2-(N-ethyl-4-methoxybenzenesulfonamido)-N-(2-methylphenyl) acetamide]				dramatically increase
